Usually Ki stands for a measure of affinity in units of concentration, obtained from inhibition or displacement.

SMILES strings stand for the structures.

The target of this assay is Integrin alpha-V/beta-3 (Homo sapiens, UniProt P05106+P06756). Nature of the assay: Binding affinity towards vitronectin receptor (alpha V-beta3) was determined. Format: protein-complex assay.
Chain of Integrin alpha-V/beta-3 (P05106 27-788 limits assumed): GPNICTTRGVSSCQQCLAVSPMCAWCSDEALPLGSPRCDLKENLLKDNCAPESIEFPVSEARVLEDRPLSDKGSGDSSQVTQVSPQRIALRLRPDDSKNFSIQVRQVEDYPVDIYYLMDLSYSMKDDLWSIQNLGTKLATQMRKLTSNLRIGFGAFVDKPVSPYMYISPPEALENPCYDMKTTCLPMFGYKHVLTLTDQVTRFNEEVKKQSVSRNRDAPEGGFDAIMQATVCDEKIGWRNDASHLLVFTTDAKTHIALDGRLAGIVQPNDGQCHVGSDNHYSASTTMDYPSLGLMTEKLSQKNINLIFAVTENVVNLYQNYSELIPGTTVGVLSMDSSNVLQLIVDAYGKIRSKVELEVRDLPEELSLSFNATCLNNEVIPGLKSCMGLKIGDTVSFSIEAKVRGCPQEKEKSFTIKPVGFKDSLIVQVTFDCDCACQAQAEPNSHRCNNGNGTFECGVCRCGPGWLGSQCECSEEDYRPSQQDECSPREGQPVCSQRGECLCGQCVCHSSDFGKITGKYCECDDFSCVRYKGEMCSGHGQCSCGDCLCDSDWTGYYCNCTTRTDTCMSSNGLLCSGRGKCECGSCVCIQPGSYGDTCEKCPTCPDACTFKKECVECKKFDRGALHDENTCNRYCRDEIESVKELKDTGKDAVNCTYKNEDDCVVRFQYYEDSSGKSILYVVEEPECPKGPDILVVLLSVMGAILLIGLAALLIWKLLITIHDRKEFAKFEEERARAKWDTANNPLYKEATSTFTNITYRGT
Chain of Integrin alpha-V/beta-3 (P06756 31-889 limits assumed): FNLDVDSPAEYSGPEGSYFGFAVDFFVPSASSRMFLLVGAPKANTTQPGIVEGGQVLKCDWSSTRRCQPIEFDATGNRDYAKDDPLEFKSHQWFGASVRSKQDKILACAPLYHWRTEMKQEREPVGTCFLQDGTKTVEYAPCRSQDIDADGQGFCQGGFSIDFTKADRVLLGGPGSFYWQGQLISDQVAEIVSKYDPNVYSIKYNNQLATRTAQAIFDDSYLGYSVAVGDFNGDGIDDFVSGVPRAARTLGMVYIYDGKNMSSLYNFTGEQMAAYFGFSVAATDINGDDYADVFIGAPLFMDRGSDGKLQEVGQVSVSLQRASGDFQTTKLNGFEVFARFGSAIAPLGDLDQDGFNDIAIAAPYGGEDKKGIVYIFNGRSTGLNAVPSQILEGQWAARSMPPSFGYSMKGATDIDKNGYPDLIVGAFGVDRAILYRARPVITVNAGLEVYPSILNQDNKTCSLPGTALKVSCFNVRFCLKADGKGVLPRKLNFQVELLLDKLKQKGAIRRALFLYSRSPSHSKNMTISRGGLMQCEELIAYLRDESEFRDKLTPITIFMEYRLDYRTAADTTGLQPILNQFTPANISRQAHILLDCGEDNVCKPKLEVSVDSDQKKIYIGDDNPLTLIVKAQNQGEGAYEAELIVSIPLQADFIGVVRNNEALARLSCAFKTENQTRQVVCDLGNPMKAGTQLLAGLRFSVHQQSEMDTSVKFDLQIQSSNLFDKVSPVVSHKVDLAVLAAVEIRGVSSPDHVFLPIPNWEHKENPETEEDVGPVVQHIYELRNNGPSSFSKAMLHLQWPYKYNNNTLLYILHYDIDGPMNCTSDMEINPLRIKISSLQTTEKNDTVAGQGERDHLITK
Chain of Integrin alpha-V/beta-3 (P06756 891-1048 limits assumed): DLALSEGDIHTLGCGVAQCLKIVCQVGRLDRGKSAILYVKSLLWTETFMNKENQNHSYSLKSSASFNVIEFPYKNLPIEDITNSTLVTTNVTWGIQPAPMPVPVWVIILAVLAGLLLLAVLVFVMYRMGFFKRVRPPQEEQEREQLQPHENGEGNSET
In turn, `Cc1cc(C)c(S(=O)(=O)N[C@@H](Cc2ccc(-c3cccc(NC(=N)N)c3)cc2)C(=O)O)c(C)c1` returned a Ki of 11 nM. `Cc1cc(C)c(S(=O)(=O)N[C@@H](Cc2ccc(-c3cccc(NC(=O)NCc4ccccn4)c3)cc2)C(=O)O)c(C)c1` came in with an inhibitory constant (Ki) above 10000 nM. As to `CCCNC(=O)Nc1cccc(-c2ccc(C[C@H](NS(=O)(=O)c3c(C)cc(C)cc3C)C(=O)O)cc2)c1`, affinity was put at a Ki of 4 nM.

For `Cc1cc(C)c(S(=O)(=O)N[C@@H](Cc2ccc(-c3cccc(NC(=O)Nc4nc5ccccc5[nH]4)c3)cc2)C(=O)O)c(C)c1`, the Ki was above 10000 nM. The value for `CCCNC(=O)Nc1cccc(-c2ccc(C[C@H](NC(=O)OCC(C)(C)C)C(=O)O)cc2)c1` was 800 nM; that for `CCCNC(=O)Nc1cccc(-c2ccc(C[C@H](NS(=O)(=O)c3cccc(Cl)c3Cl)C(=O)O)cc2)c1` was 170 nM; that for `CCCNC(=O)Nc1cccc(-c2ccc(C[C@H](NS(=O)(=O)c3ccccc3S(C)(=O)=O)C(=O)O)cc2)c1` was above 10000 nM. Turning to `CCCNC(=O)Nc1cccc(-c2ccc(C[C@H](NS(=O)(=O)c3cc(Cl)ccc3OC)C(=O)O)cc2)c1`, affinity was put at a Ki of 1700 nM. Under `CCCNC(=O)Nc1cccc(-c2ccc(C[C@H](NS(C)(=O)=O)C(=O)O)cc2)c1` stands 75 nM.

Regarding `CCCNC(=O)Nc1cccc(-c2ccc(C[C@H](NC(=O)OC3CCCC3)C(=O)O)cc2)c1`, the affinity, expressed as Ki, was 210 nM. Regarding `CCCNC(=O)Nc1cccc(-c2ccc(C[C@H](NC(=O)c3ccc(OC)cc3)C(=O)O)cc2)c1`, the Ki was above 10000 nM. For the molecule `CCCNC(=O)Nc1cccc(-c2ccc(C[C@H](NS(=O)(=O)c3cc(OC)ccc3OC)C(=O)O)cc2)c1`, the affinity corresponds to a Ki of 500 nM. The value for `Cc1cc(C)c(S(=O)(=O)N[C@@H](Cc2ccc(-c3cccc(NC(=O)NCC(F)(F)F)c3)cc2)C(=O)O)c(C)c1` was 20 nM.

On to `Cc1cc(C)c(S(=O)(=O)N[C@@H](Cc2ccc(-c3cccc(NC(=O)NCC(F)(F)C(F)(F)F)c3)cc2)C(=O)O)c(C)c1`, for which the Ki turned out to be 80 nM.

`CCCNC(=O)Nc1cccc(-c2ccc(C[C@H](NS(=O)(=O)c3ccccc3C(F)(F)F)C(=O)O)cc2)c1` displayed a Ki above 10000 nM. The value for `CCC(C)NC(=O)Nc1cccc(-c2ccc(C[C@H](NS(=O)(=O)c3c(C)cc(C)cc3C)C(=O)O)cc2)c1` (stereo partly drawn) was 74 nM; that for `CCCNC(=O)Nc1cccc(-c2ccc(C[C@H](NC(=O)NCc3ccccc3)C(=O)O)cc2)c1` was 850 nM. Under `Cc1cc(C)c(S(=O)(=O)N[C@@H](Cc2ccc(-c3cccc(NC(=O)NC(C)C)c3)cc2)C(=O)O)c(C)c1` stands 14 nM; under `CCCNC(=O)Nc1cccc(-c2ccc(C[C@H](NS(=O)(=O)C[C@]34CCC(CC3=O)C4(C)C)C(=O)O)cc2)c1`, 1 nM; under `Cc1cc(C)c(S(=O)(=O)N[C@@H](Cc2ccc(-c3ccc(C)c(NC(=O)NC4CC4)c3)cc2)C(=O)O)c(C)c1`, 10 nM.

Molecule `CCCNC(=O)Nc1cccc(-c2ccc(C[C@H](NC(N)=O)C(=O)O)cc2)c1` returned a Ki of 560 nM. `CCCNC(=O)Nc1cccc(-c2ccc(C[C@H](NS(=O)(=O)Cc3ccccc3)C(=O)O)cc2)c1` displayed a Ki of 300 nM. The value for `Cc1cc(C)c(S(=O)(=O)N[C@@H](Cc2ccc(-c3cccc(NC(=O)NCC(C)C)c3)cc2)C(=O)O)c(C)c1` was 10 nM. On to `Cc1cc(C)c(S(=O)(=O)N[C@@H](Cc2ccc(-c3cccc(NC(N)=O)c3)cc2)C(=O)O)c(C)c1`, for which the Ki turned out to be 80 nM.

As to `CCCNC(=O)Nc1cccc(-c2ccc(C[C@H](NC(=O)OCc3ccccc3)C(=O)O)cc2)c1`, the Ki was determined as 800 nM.

The molecule `Cc1cc(C)c(S(=O)(=O)N[C@@H](Cc2ccc(-c3ccc(C)c(NC(=O)NC4CCCC4)c3)cc2)C(=O)O)c(C)c1` returned a Ki of 100 nM. Under `CCCNC(=O)Nc1cccc(-c2ccc(C[C@H](NC(=O)OCC(C)C)C(=O)O)cc2)c1` stands 900 nM.

Regarding `CCCNC(=O)Nc1cccc(-c2ccc(C[C@H](NS(=O)(=O)c3ccc(Cl)cc3C(F)(F)F)C(=O)O)cc2)c1`, affinity was put at a Ki of 100 nM. For the molecule `CCCNC(=O)Nc1cccc(-c2ccc(C[C@H](NS(=O)(=O)c3ccc(OC)c(OC)c3)C(=O)O)cc2)c1`, the Ki came out at 750 nM.

`Cc1cc(C)c(S(=O)(=O)N[C@@H](Cc2ccc(-c3cccc(NC(=O)NCc4ccccc4)c3)cc2)C(=O)O)c(C)c1`: affinity was put at a Ki of 60 nM. Under `CCCNC(=O)Nc1cccc(-c2ccc(C[C@H](NC(=O)OCC)C(=O)O)cc2)c1` stands 120 nM; under `Cc1cc(C)c(S(=O)(=O)N[C@@H](Cc2ccc(-c3cccc(NC(=O)NCCSC(F)(F)F)c3)cc2)C(=O)O)c(C)c1`, 8 nM; under `CNC(=O)Nc1cccc(-c2ccc(C[C@H](NS(=O)(=O)c3c(C)cc(C)cc3C)C(=O)O)cc2)c1`, 160 nM. The value for `CCCNC(=O)Nc1cccc(-c2cccc(C[C@H](NS(=O)(=O)c3c(C)cc(C)cc3C)C(=O)O)c2)c1` was above 10000 nM; that for `Cc1cc(C)c(S(=O)(=O)N[C@@H](Cc2ccc(-c3cccc(NC(=O)NCc4ccc(C(F)(F)F)cc4)c3)cc2)C(=O)O)c(C)c1` was 1000 nM. Under `CCCNC(=O)Nc1cccc(-c2ccc(C[C@H](NC(=O)Oc3ccc(OC)cc3)C(=O)O)cc2)c1` stands 300 nM; under `CCCNC(=O)Nc1cccc(-c2ccc(C[C@H](NS(=O)(=O)c3ccccc3C)C(=O)O)cc2)c1`, 70 nM.

Take `Cc1cc(C)c(S(=O)(=O)N[C@@H](Cc2ccc(-c3cccc(NC(=O)NC4CC4)c3)cc2)C(=O)O)c(C)c1`: the Ki worked out at 2.5 nM.

For the origin of these results see ChEMBL document CHEMBL1136646, “Biphenyls as potent vitronectin receptor antagonists. Part 2: biphenylalanine ureas” (Bioorg Med Chem Lett, 2003).
